Test results: PubChem BioAssay AID1963831 (Molecular Pharmacology Branch, DTP, NCI, 2024)

System: 889142-216-R-J1-PDC complex spheroid viability
Assay: Anticancer human tumor 889142-216-R-J1-PDC patient-derived bladder carcinoma cell line growth inhibition [POLQ]
Conditions: for IC50: curve of first compound; for viability, T/C: stronger effect = lower value
Procedure: Multicellular complex tumor spheroid response to Polymerase (POL) inhibitors (novobiocin, ART-558, RP6685) in combination with a variety of drugs and investigational agents in selected tumor cell lines
The POL inhibitors (novobiocin, ART-558, and RP6685) were evaluated both individually and in combination with standard of care and investigational anticancer small molecules within a complex spheroid model of solid tumors. . Complex spheroids include a stromal component modeled by human endothelial cells (HUVEC) and fibroblasts modeled by human mesenchymal stem cells (MSCs). The concentration ranges selected for each drug and investigational agent were based upon clinically achievable concentrations if the clinical Cmax of the agent was known.
Compounds. The drugs and investigational agents: novobiocin (NSC847541), ART-558 (NSC835418), RP-6685 (NSC848927), peposertib (NSC802822), ceralasertib (NSC780249), elimusertib (NSC800525), camonsertib (NSC841442), AZD-1390 (NSC803789), olaparib (NSC753686), talazoparib (NSC767125), rucaparib (NSC756644), sotorasib (NSC818433), MRTX-1133 (NSC836407), SN-38 (NSC673596), topotecan (NSC609699), epotoside (NSC141540), doxorubicin (NSC123127), gemcitabine (NSC613327), 5-fluorouracil (NSC19893), paclitaxel (NSC125973), vemurafenib (NSC761431), MSA-2 (NSC828583), SN-011 (NSC837082), adavosertib (NSC754352), prexasertib (NSC758257), carboplatin (NSC241240) and oxaliplatin (NSC266046), were obtained from the National Cancer Institute (NCI) Developmental Therapeutics Program Chemical Repository (21). The FDA-approved anticancer drug set is available from the Developmental Therapeutics Program at https://dtp.cancer.gov/organization/dscb/obtaining/. […] The stock solutions were prepared in dimethyl sulfoxide (DMSO, Sigma-Aldrich, St. Louis, MO, cat. D2650), except for the platinum compounds which were prepared in saline (Quality Biological, Gaithersburg, MD, cat. 114-055-101), at 800-fold the tested concentration and stored at -70 degrees C prior to their use. All drugs and investigational agents were tested over a range starting from a high concentration at or near the clinical Cmax and decreasing in half-log increments. If the clinical Cmax for an agent had not been determined, the highest concentration tested was 10 microM, except for SN-38, which was tested at a high concentration of 1 microM.
Cell Culture. All cells were maintained in an incubator at 37 degrees C and 5% CO2 with 95% humidity. The PDC lines were cultured according to standard operating procedures established by the NCI PDMR (https://pdmr.cancer.gov). Table 3 of the manuscript, lists the cell lines along with the number of the three cell types plated to form the mct-spheroids and media for tumor cell growth. After thawing, all PDC lines, except 997537-175-T-J1-PDC and 415267-285-R-J2-PDC, were cultured in Matrigel-coated flasks prepared with a working solution of 1X Ham's F-12 nutrient mix, without supplementation (Thermo Fisher Scientific, cat. 11765054), 100 U/mL penicillin-streptomycin (Thermo Fisher Scientific, cat. 15140122), and 2.5% Matrigel (Corning Inc., Corning, NY, cat. 354248) for the first three passages. The two PDC lines 997537-175-T-J1-PDC and 415267-285-R-J2-PDC were cultured on uncoated flasks. The 857933-349-R-J2-PDC line was cultured in 6C/Colon 1B media containing advanced DMEM/F-12 (Thermo Fisher Scientific, cat. 12634028), 10 mM HEPES (Thermo Fisher Scientific, cat. 15630080), 1X GlutaMAX supplement (Thermo Fisher Scientific, cat. 35050061), 0.1 mg/mL primocin (InvivoGen, San Diego, CA, cat. ant-pm-2), 10% defined fetal bovine serum, heat inactivated (HyClone Laboratories Inc., Logan, UT, cat. SH30070.03HI), 50% L-WRN conditioned media (ATCC, cat. CRL-3276), 1.25 mM N-Acetyl-L-cysteine (Sigma-Aldrich, cat. A9165), 10 mM nicotinamide (Sigma-Aldrich, cat. N0636), 1X B-27 supplement (Thermo Fisher Scientific, cat. 17504044), 1X N-2 supplement (Thermo Fisher Scientific, cat. […]

[1] = second compound 0.0316 µM, first compound 0.0316 µM
[2] = second compound 0.0316 µM, first compound 0.1 µM
[3] = second compound 0.0316 µM, first compound 0.316 µM
[4] = second compound 0.0316 µM, first compound 1 µM
[5] = second compound 0.0316 µM, first compound 3.16 µM
[6] = second compound 0.0316 µM, first compound 10 µM
[7] = second compound 0.1 µM, first compound 0.0316 µM
[8] = second compound 0.1 µM, first compound 0.1 µM
[9] = second compound 0.1 µM, first compound 0.316 µM
[10] = second compound 0.1 µM, first compound 1 µM
[11] = second compound 0.1 µM, first compound 3.16 µM
[12] = second compound 0.1 µM, first compound 10 µM
[13] = second compound 0.316 µM, first compound 0.0316 µM
[14] = second compound 0.316 µM, first compound 0.1 µM
[15] = second compound 0.316 µM, first compound 0.316 µM
[16] = second compound 0.316 µM, first compound 1 µM
[17] = second compound 0.316 µM, first compound 3.16 µM
[18] = second compound 0.316 µM, first compound 10 µM
[19] = second compound 1 µM, first compound 0.0316 µM
[20] = second compound 1 µM, first compound 0.1 µM
[21] = second compound 1 µM, first compound 0.316 µM
[22] = second compound 1 µM, first compound 1 µM
[23] = second compound 1 µM, first compound 3.16 µM
[24] = second compound 1 µM, first compound 10 µM
[25] = second compound 3.16 µM, first compound 0.0316 µM
[26] = second compound 3.16 µM, first compound 0.1 µM
[27] = second compound 3.16 µM, first compound 0.316 µM
[28] = second compound 3.16 µM, first compound 1 µM
[29] = second compound 3.16 µM, first compound 3.16 µM
[30] = second compound 3.16 µM, first compound 10 µM
[31] = second compound 10 µM, first compound 0.0316 µM
[32] = second compound 10 µM, first compound 0.1 µM
[33] = second compound 10 µM, first compound 0.316 µM
[34] = second compound 10 µM, first compound 1 µM
[35] = second compound 10 µM, first compound 3.16 µM
[36] = second compound 10 µM, first compound 10 µM
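Also: spheroids exposed to compounds for seven days.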
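For viability, T/C in this document: 100% = DMSO vehicle control viability.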

CC(=O)O[C@H]1C(=O)[C@@]2(C)[C@H]([C@H](OC(=O)c3ccccc3)[C@]3(O)C[C@H](OC(=O)[C@H](O)[C@@H](NC(=O)c4ccccc4)c4ccccc4)C(C)=C1C3(C)C)[C@]1(OC(C)=O)CO[C@@H]1C[C@@H]2O + COC1C(OC(N)=O)C(O)C(Oc2ccc3c(O)c(NC(=O)c4ccc(O)c(CC=C(C)C)c4)c(=O)oc3c2C)OC1(C)C
IC50 (second compound 0.0316 µM): < 0.00949 µM | IC50 (second compound 0.1 µM): < 0.00949 µM | IC50 (second compound 0.316 µM): < 0.00949 µM | IC50 (second compound 1 µM): < 0.00949 µM | IC50 (second compound 3.16 µM): < 0.00949 µM | IC50 (second compound 10 µM): < 0.00949 µM | viability, T/C (second compound 0.0316 µM, first compound 0.00949 µM): 42% | viability, T/C (second compound 0.0316 µM, first compound 0.03 µM): 37.3% | viability, T/C (second compound 0.0316 µM, first compound 0.0949 µM): 36.2% | viability, T/C (second compound 0.0316 µM, first compound 0.3 µM): 35% | viability, T/C (second compound 0.0316 µM, first compound 0.949 µM): 40.6% | viability, T/C (second compound 0.0316 µM, first compound 3 µM): 43% | viability, T/C (second compound 0.1 µM, first compound 0.00949 µM): 40% | viability, T/C (second compound 0.1 µM, first compound 0.03 µM): 29.9% | viability, T/C (second compound 0.1 µM, first compound 0.0949 µM): 40.6% | viability, T/C (second compound 0.1 µM, first compound 0.3 µM): 34.2% | viability, T/C (second compound 0.1 µM, first compound 0.949 µM): 37.4% | viability, T/C (second compound 0.1 µM, first compound 3 µM): 38.5% | viability, T/C (second compound 0.316 µM, first compound 0.00949 µM): 38.3% | viability, T/C (second compound 0.316 µM, first compound 0.03 µM): 37.2% | viability, T/C (second compound 0.316 µM, first compound 0.0949 µM): 41.3% | viability, T/C (second compound 0.316 µM, first compound 0.3 µM): 32.9% | viability, T/C (second compound 0.316 µM, first compound 0.949 µM): 34% | viability, T/C (second compound 0.316 µM, first compound 3 µM): 37.4% | viability, T/C (second compound 1 µM, first compound 0.00949 µM): 39.9% | viability, T/C (second compound 1 µM, first compound 0.03 µM): 40% | viability, T/C (second compound 1 µM, first compound 0.0949 µM): 43.9% | viability, T/C (second compound 1 µM, first compound 0.3 µM): 37.5% | viability, T/C (second compound 1 µM, first compound 0.949 µM): 35.3% | viability, T/C (second compound 1 µM, first compound 3 µM): 39.7% | viability, T/C (second compound 3.16 µM, first compound 0.00949 µM): 39.1% | viability, T/C (second compound 3.16 µM, first compound 0.03 µM): 38.1% | viability, T/C (second compound 3.16 µM, first compound 0.0949 µM): 39% | viability, T/C (second compound 3.16 µM, first compound 0.3 µM): 39.7% | viability, T/C (second compound 3.16 µM, first compound 0.949 µM): 41.2% | viability, T/C (second compound 3.16 µM, first compound 3 µM): 40.4% | viability, T/C (second compound 10 µM, first compound 0.00949 µM): 41.1% | viability, T/C (second compound 10 µM, first compound 0.03 µM): 38.1% | viability, T/C (second compound 10 µM, first compound 0.0949 µM): 40.4% | viability, T/C (second compound 10 µM, first compound 0.3 µM): 45.2% | viability, T/C (second compound 10 µM, first compound 0.949 µM): 38.5% | viability, T/C (second compound 10 µM, first compound 3 µM): 39.5%

COc1cc(C2c3cc4c(cc3C(OC3OC5COC(C)OC5C(O)C3O)C3COC(=O)C23)OCO4)cc(OC)c1O (stereo unspecified) + COC1C(OC(N)=O)C(O)C(Oc2ccc3c(O)c(NC(=O)c4ccc(O)c(CC=C(C)C)c4)c(=O)oc3c2C)OC1(C)C
IC50 (second compound 0.0316 µM): > 10 µM | IC50 (second compound 0.1 µM): > 10 µM | IC50 (second compound 0.316 µM): > 10 µM | IC50 (second compound 1 µM): 10 µM | IC50 (second compound 3.16 µM): > 10 µM | IC50 (second compound 10 µM): > 10 µM | viability, T/C [1]: 93.7% | viability, T/C [2]: 81.6% | viability, T/C [3]: 52% | viability, T/C [4]: 57.3% | viability, T/C [5]: 74% | viability, T/C [6]: 52.9% | viability, T/C [7]: 87.1% | viability, T/C [8]: 87.2% | viability, T/C [9]: 63% | viability, T/C [10]: 56.3% | viability, T/C [11]: 70.4% | viability, T/C [12]: 50.4% | viability, T/C [13]: 110% | viability, T/C [14]: 88.8% | viability, T/C [15]: 66.1% | viability, T/C [16]: 56.2% | viability, T/C [17]: 60.3% | viability, T/C [18]: 52.9% | viability, T/C [19]: 91.5% | viability, T/C [20]: 99.9% | viability, T/C [21]: 53.4% | viability, T/C [22]: 61% | viability, T/C [23]: 60.4% | viability, T/C [24]: 56% | viability, T/C [25]: 94.9% | viability, T/C [26]: 96.9% | viability, T/C [27]: 75.3% | viability, T/C [28]: 51% | viability, T/C [29]: 58.1% | viability, T/C [30]: 52.9% | viability, T/C [31]: 108% | viability, T/C [32]: 90.2% | viability, T/C [33]: 56.7% | viability, T/C [34]: 48.9% | viability, T/C [35]: 64.5% | viability, T/C [36]: 55.3%

O=c1[nH]cc(F)c(=O)[nH]1 + COC1C(OC(N)=O)C(O)C(Oc2ccc3c(O)c(NC(=O)c4ccc(O)c(CC=C(C)C)c4)c(=O)oc3c2C)OC1(C)C
IC50 (second compound 0.0316 µM): > 10 µM | IC50 (second compound 0.1 µM): > 10 µM | IC50 (second compound 0.316 µM): > 10 µM | IC50 (second compound 1 µM): > 10 µM | IC50 (second compound 3.16 µM): > 10 µM | IC50 (second compound 10 µM): > 10 µM | viability, T/C [1]: 98.8% | viability, T/C [2]: 99.2% | viability, T/C [3]: 94.5% | viability, T/C [4]: 75% | viability, T/C [5]: 74% | viability, T/C [6]: 70.6% | viability, T/C [7]: 121% | viability, T/C [8]: 107% | viability, T/C [9]: 75.3% | viability, T/C [10]: 67.2% | viability, T/C [11]: 75.2% | viability, T/C [12]: 77.5% | viability, T/C [13]: 112% | viability, T/C [14]: 113% | viability, T/C [15]: 95.1% | viability, T/C [16]: 83.6% | viability, T/C [17]: 85.8% | viability, T/C [18]: 72.6% | viability, T/C [19]: 106% | viability, T/C [20]: 123% | viability, T/C [21]: 92.5% | viability, T/C [22]: 78.8% | viability, T/C [23]: 77.6% | viability, T/C [24]: 67.8% | viability, T/C [25]: 112% | viability, T/C [26]: 90.2% | viability, T/C [27]: 73.3% | viability, T/C [28]: 79.3% | viability, T/C [29]: 78.9% | viability, T/C [30]: 78% | viability, T/C [31]: 90.5% | viability, T/C [32]: 103% | viability, T/C [33]: 87.8% | viability, T/C [34]: 89.7% | viability, T/C [35]: 70.5% | viability, T/C [36]: 69.8%
